Legend:
Experiment in all cases: relative viability vs DMSO control (72 h) (fraction); higher = more viable cells
RD-ES = tested on: RD-ES
How it was run: (§1)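 Sarcoma cell lines in 384-well plates, seeded to reach 80–90% confluence, were given compound after 24 h and kept 72 h at 37 °C, 5% CO2, with 0.1% DMSO vehicle and a 5 µM positive control. Relative viability came from ATPLite as percent growth, averaged over up to triplicate wells. On the rescaled values, 1 equals full and 0 equals none.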

HT1080 = tested on: HT1080
How it was run: as §1

KHOS-NP = tested on: KHOS-NP
How it was run: as §1

SW684 = tested on: SW684
How it was run: as §1

SYO-1 = tested on: SYO-1
How it was run: as §1

Cc1cc2cc(Oc3ccnc(Nc4cccc(CS(=O)(=O)NCCN(C)C)c4)n3)ccc2[nH]1 [Sulfatinib]
relative viability
Conditions	HT1080	KHOS-NP	RD-ES	SW684	SYO-1
0.00017 µM	1.023	1.05	1.02	1.11	0.943
0.00051 µM	0.983	1.05	0.998	1.09	0.962
0.00152 µM	0.997	1.03	1.01	1.09	0.945
0.00457 µM	1.03	1.006	0.996	1.12	0.938
0.01372 µM	1.03	1.03	1.023	1.08	0.9
0.04115 µM	1.03	1.019	1	1.07	0.865
0.1235 µM	1.01	1.04	1	1.04	0.805
0.3704 µM	1.044	1.026	1.01	1.1	0.607
1.111 µM	0.969	1.01	0.992	1.05	0.423
3.333 µM	1.05	1.01	0.87	0.995	0.341
10 µM	0.878	0.963	0.579	0.555	0.105

CCN(CC)CCNC(=O)c1c(C)[nH]c(/C=C2\C(=O)Nc3ccc(F)cc32)c1C [Sunitinib]
relative viability
Conditions	HT1080	KHOS-NP	RD-ES	SW684	SYO-1
0.00017 µM	1.13	1.04	0.955	1.17	0.952
0.00051 µM	1.051	1.06	0.952	1.16	0.9234
0.00152 µM	1.1	1.05	0.968	1.18	0.886
0.00457 µM	1.06	1.05	0.97	1.15	0.813
0.01372 µM	1.08	1.06	0.964	1.144	0.706
0.04115 µM	1.07	1.047	0.958	1.17	0.665
0.1235 µM	1.11	1.069	0.895	1.181	0.601
0.3704 µM	1.14	1.065	0.752	1.07	0.494
1.111 µM	1.06	0.973	0.276	0.871	0.406
3.333 µM	0.113	0.381	0.0097	0.609	-0.00767
10 µM	0.00267	0.0257	0.00923	0.001	-0.00903

Cn1ncnc1[C@H]1c2n[nH]c(=O)c3cc(F)cc(c23)N[C@@H]1c1ccc(F)cc1 [Talazoparib]
relative viability
Conditions	HT1080	KHOS-NP	RD-ES	SW684	SYO-1
0.00017 µM	1.06	1.02	0.976	0.965	0.974
0.00051 µM	1.05	1.04	0.95	1.01	0.961
0.00152 µM	1.05	1.03	0.904	0.988	0.885
0.00457 µM	1.037	1.04	0.844	1.05	0.743
0.01372 µM	1	1.02	0.609	0.986	0.582
0.04115 µM	0.955	1.01	0.191	0.969	0.466
0.1235 µM	0.8497	1	0.0431	0.963	0.336
0.3704 µM	0.797	0.968	0.0199	0.932	0.193
1.111 µM	0.662	0.837	0.0127	0.893	0.081
3.333 µM	0.577	0.675	0.00913	0.875	0.0279
10 µM	0.554	0.607	0.0143	0.865	0.0191

O=c1sn(-c2cccc3ccccc23)c(=O)n1Cc1ccccc1 [Tideglusib]
relative viability
Conditions	HT1080	KHOS-NP	RD-ES	SW684	SYO-1
0.00017 µM	1.06	1.11	1.01	1.17	1.01
0.00051 µM	1.08	1.112	1.03	1.19	0.987
0.00152 µM	1.07	1.1	1.02	1.21	0.999
0.00457 µM	1.1	1.114	1.02	1.14	0.97
0.01372 µM	1.069	1.12	1.02	1.16	0.956
0.04115 µM	1.07	1.113	1.01	1.14	0.944
0.1235 µM	1.06	1.108	1.03	1.17	0.949
0.3704 µM	1.09	1.1	1.01	1.11	0.953
1.111 µM	1.07	1.075	1.01	1.16	0.969
3.333 µM	1.097	1.08	1	1.09	0.944
10 µM	1.02	1.07	0.992	1.1	0.891

O=C1NC(=O)[C@@H](c2cn3c4c(cccc24)CCC3)[C@@H]1c1c[nH]c2ccccc12 [Tivantinib]
relative viability
Conditions	HT1080	KHOS-NP	RD-ES	SW684	SYO-1
0.00017 µM	1.047	1.036	0.948	1.15	0.934
0.00051 µM	1.02	1.04	0.967	1.119	0.928
0.00152 µM	1.03	1.036	0.986	1.16	0.95
0.00457 µM	1.04	1.03	1	1.123	0.924
0.01372 µM	1.01	1.04	1	1.09	0.911
0.04115 µM	1.04	1.04	1.01	1.13	0.894
0.1235 µM	1.03	1.04	0.977	1.1	0.861
0.3704 µM	1.02	1.05	0.94	0.961	0.716
1.111 µM	0.287	0.541	0.129	0.783	0.327
3.333 µM	0.128	0.487	0.071	0.601	0.271
10 µM	0.0702	0.374	0.0364	0.636	0.28

Cc1[nH]c(/C=C2\C(=O)Nc3ccc(F)cc32)c(C)c1C(=O)NCCN1CCCC1 [Toceranib]
relative viability
Conditions	HT1080	KHOS-NP	RD-ES	SW684	SYO-1
68 pM	1.09	1.09	0.976	1.1	0.931
0.000203 µM	1.06	1.106	0.948	1.178	0.887
0.0006 µM	1.116	1.0967	0.964	1.13	0.835
0.0018 µM	1.07	1.08	0.943	1.13	0.806
0.0055 µM	1.076	1.07	0.9493	1.14	0.721
0.0165 µM	1.04	1.07	0.937	1.1	0.64
0.0494 µM	1.09	1.03	0.924	1.15	0.587
0.1481 µM	1	1.02	0.902	1.14	0.603
0.444 µM	1.1	1.02	0.821	1.12	0.576
1.333 µM	1.14	1	0.615	0.956	0.482
4 µM	0.868	0.775	0.176	0.755	0.357

CC(C)Oc1ccc(-c2nn([C@@H](C)c3oc4ccc(F)cc4c(=O)c3-c3cccc(F)c3)c3ncnc(N)c23)cc1F [Umbralisib]
relative viability
Conditions	HT1080	KHOS-NP	RD-ES	SW684	SYO-1
0.00017 µM	1.07	1.091	1	1.13	1.04
0.00051 µM	1.09	1.085	1	1.17	1.02
0.00152 µM	1.07	1.095	1.01	1.16	1.03
0.00457 µM	1.09	1.1	1.001	1.21	1.03
0.01372 µM	1.06	1.1	0.979	1.2	1.03
0.04115 µM	1.069	1.09	1	1.19	0.995
0.1235 µM	1.08	1.11	1.02	1.16	1.01
0.3704 µM	1.07	1.08	1	1.06	1.02
1.111 µM	1.05	1.1	0.994	0.966	0.975
3.333 µM	1.05	1.1	1.01	0.9274	0.968
10 µM	0.955	1.077	1.02	0.882	0.897

CC[C@@H]1CN(C(=O)NCC(F)(F)F)C[C@@H]1c1cnc2cnc3[nH]ccc3n12 [Upadacitinib]
relative viability
Conditions	HT1080	KHOS-NP	RD-ES	SW684	SYO-1
0.00017 µM	1.06	1.07	0.981	1.1	1.04
0.00051 µM	1.06	1.09	0.979	1.19	1
0.00152 µM	1.08	1.07	1	1.18	0.988
0.00457 µM	1.05	1.08	0.979	1.18	0.978
0.01372 µM	1.07	1.08	1	1.17	0.958
0.04115 µM	1.06	1.088	0.99	1.16	0.934
0.1235 µM	1.05	1.07	0.97	1.18	0.927
0.3704 µM	1.062	1.06	0.974	1.13	0.894
1.111 µM	1.035	1.03	0.964	1.17	0.826
3.333 µM	1.01	0.965	0.996	1.11	0.764
10 µM	0.9733	0.912	0.989	1.03	0.592
